From US9084782B2, “Chemical inhibitors of cholesterol biosynthesis and venous angiogenesis” (The Regents of the University of California, priority 2011, dated 2015)
Entries after “also recorded” stand apart in the source; their conditions may differ.

Experiments:
cardiomyocytes = assay: Cardiomyocyte migration / heart tube formation in Tg(myl7:GFP) embryos; format: in vivo, zebrafish; settings: 30 μM aplexone
Description: (§1) A,B,C, Overall phenotype of control and aplexone-treated embryos at 30 hpf. A′,B′,C′, Vasculature in trunk. […] D-E, Germ cells in control and aplexone treated embryos at 24 hpf were detected by in situ hybridization using the nanos probe. F, The percentage of embryos with ectopic primordial germ cells in control (n=26), 5 μM (n=13), and 10 μM (n=14) aplexone-treated embryos. […] I, The percentage of embryos with cardia bifida in control (n=16) and 10 μM-(n=17), 20 μM-(n=17) and 30 μM-(n=18) aplexone-treated embryos.

HMGCR pathway = assay: Quantitative RT-PCR of aplexone-treated embryos; format: in vivo, zebrafish; settings: qPCR, GAPDH-normalized
Description: Embryos at the 5-somite stage were treated with 0.4% DMSO (control) or 10 μM of aplexone in 0.4% DMSO and total RNA was isolated using the RNAeasy micro kit (Qiagen) at 30 hpf. Microarray analysis was performed in triplicate using the Affymetrix Zebrafish GeneChip, representing 15,617 genes. Synthesis and labeling of antisense RNA was performed as recommended by the array manufacturer using kits from Invitrogen for double-stranded cDNA synthesis, Enzo Life Sciences for transcription and labeling of antisense RNA and Affymetrix for probe purification and hybridization controls. Microarray hybridization data were analyzed using scripts written in the statistical programming language R (Team, 2009). Differentially expressed genes (DEGs) were identified using a linear model and multiple testing correction from the limma package (Smyth, 2004). The expression values were obtained using the robust multi array algorithm (Irizarry et al., 2003).
Quantitative RT-PCR was performed as follows. First strand cDNA was synthesized using the SuperScript™ first-strand synthesis system for RT-PCR (Invitrogen) and relative expression levels of genes were determined using iQ SYBR Green Supermix and an iCycler (Bio-Rad Laboratories). GAPDH was used for normalization.

zebrafish embryos = assay: Overall phenotype of treated zebrafish embryos (body shape, circulation); format: in vivo
Description: as §1
(§2) Aplexone treatment described in this study was carried out at a concentration of 10 μM starting at 10 hpf unless otherwise specified.

[1] = system: Tg(kdrl:GFP) zebrafish embryos; assay: Caudal vein plexus (CVP) formation / venous angiogenesis in Tg(kdrl:GFP) zebrafish embryos; format: in vivo
Text: (§3) Images of GFP expression in Tg(kdrl:GFP) embryos were acquired using a Zeiss SV-11 epifluorescence microscope. Confocal images were acquired using a Carl Zeiss Laser Scanning Systems LSM510 equipped with 20× air, 20× water or 40× water immersion objectives. For single time point confocal images, embryos were anesthetized with 0.01% tricaine and embedded in 1% agarose. When capturing time-lapse confocal movies, embryos were mounted in 3.5% methylcellulose (Sigma-Aldrich) and imaged for 5 hrs on a heated stage at 28.5° C. The images obtained were analyzed using the Zeiss LSM Image Brower version 4 and Image J.
A synthetic chemical library containing 168 compounds (Castellano et al., 2007) and 300 chemicals from Biomol International LP, consisting of 72 ion channel inhibitors (Cat No. 2805), 84 kinase/phosphatase inhibitors (Cat No. 2831), 84 orphan ligands (Cat No. 2825), and 60 endocannabinoids (Cat No. 2801) were screened. The synthetic small molecules were prepared through nucleophilic phosphine catalysis of allenoates (Zhu et al., 2003). Four Tg(kdrl:GFP) embryos were placed into each well of 96-well plates containing a 10 μM solution of each chemical compound dissolved in embryo buffer with 0.1% DMSO. The embryos were raised at 28.5° C. and examined for defects in blood vessel development at 1 and 2 days after treatment. Standard parameters such as numbers of somites and head to body angle were used to determine the stages of zebrafish embryos (Kimmel et al., 1995).
as §2
8 ng tnnt2 MO (Gene Tools) (Sehnert et al., 2002), 3 nl of 4 mM GGTI-2133 (Calbiochem), 3 nl of 5 mM L744,832 (Calbiochem) and 1 nl of 2M mevalonate (Sigma-Aldrich) were injected into 1-2 cell stage embryos.
The library of 168 compounds^24 prepared through the nucleophilic phosphine catalysis of allenes were screened using Tg(kdrl:GFP) zebrafish. Four embryos were placed in each well of 96-well plates containing a 10 uM solution of each chemical compound dissolved in embryo buffer with 0.1% DMSO. The embryos were raised at 28.5° C. and defects in blood vessel development were examined at 1 and 2 days after fertilization.

primordial germ cells = assay: Primordial germ cell migration, in situ hybridization with nanos probe; format: in vivo, zebrafish; settings: 10 μM aplexone
Description: as §1

[2] = system: Tg(kdrl:GFP) zebrafish embryos; assay: Primary ISV formation (arterial-derived angiogenesis) in zebrafish embryos; format: in vivo
Text: as §3
A synthetic chemical library containing 168 compounds (Castellano et al., 2007) and 300 chemicals from Biomol International LP, consisting of 72 ion channel inhibitors (Cat No. 2805), 84 kinase/phosphatase inhibitors (Cat No. 2831), 84 orphan ligands (Cat No. 2825), and 60 endocannabinoids (Cat No. 2801) were screened. […]
To understand whether angiogenesis from arterial and venous ECs are under different genetic controls we screened a collection of small molecules for compounds that preferentially suppress angiogenesis from exclusively one cell type. In this screen, we used the primary ISV sprouts as the readout for arterial-derived angiogenesis, and the CVP and secondary ISV sprouts as indicators of venous-derived angiogenesis. […]

HUVECs = assay: Wound healing assay, HUVECs; format: cell-based, human
Description: HUVECs and HUAECs were purchased from VEC Technologies. Cells were cultured on 0.1% Gelatin-coated dishes in Medium 199 (Mediatech), supplemented with 15% Fetal Bovine Serum (ATCC), 48 μg/mL Endothelial Cell Growth Supplement (BD Biosciences), 64 μg/mL Heparin Sulfate (Sigma-Aldrich), 0.9 mM Sodium Pyruvate (Mediatech), 100 IU/ml Penicillin (Mediatech), and 100 μg/ml Streptomycin (Mediatech).
For the wound healing assay, cells were cultured in 24-well plates to confluence before being subjected to a 2-hour pre-treatment with either DMSO, aplexone, Rockout (Calbiochem) or NSC 23766 (TOCRIS Bioscience). After the pre-treatment, the monolayer of endothelial cells was scratched and the closure of the wound was measured after 8 hr. The images of wounds were taken at 0 and 8 hr after scratching and the area of the wound was measured using Image J. The migration distance (the width of the wound) was calculated by dividing the area by the length of the wound. Cells below passage seven were used in this study.

body shape (zebrafish embryos; 10 μM aplexone): relatively normal body shape
embryo length (zebrafish embryos; 30 μM aplexone): shorter than control embryos
blood circulation (zebrafish embryos; aplexone-treated embryos): lack blood circulation
germ cell migration (primordial germ cells): defect in germ cell migration
SMILES: CC(=O)C1=CCC(c2ccccc2)N(S(=O)(=O)c2ccc(C)cc2)C1 (stereo not shown) [aplexone]
fusion of cardiac primordia / cardiomyocyte migration to midline (cardiomyocytes): defects in the fusion of the bilaterally positioned cardiac primordia; also recorded: fail to migrate to midline
fold change 3-hydroxy-3-methylglutaryl-Coenzyme A reductase (HMGCR) (HMGCR pathway): 6.7 fold
fold change 3-hydroxy-3-methylglutaryl-Coenzyme A synthase 1 (HMGCS) (HMGCR pathway): 2.8 fold
fold change 7-dehydrocholesterol reductase (DHCR7) (HMGCR pathway): 2.5 fold
fold change cytochrome P450, family 51 (CYP51) (HMGCR pathway): 4.4 fold
fold change farnesyl diphosphate synthetase (FDPS) (HMGCR pathway): 2.2 fold
fold change insulin induced gene 1 (INSIG) (HMGCR pathway): 5.1 fold
fold change sterol-C4-methyl oxidase-like (SC4MOL) (HMGCR pathway): 5.6 fold
CVP formation at suboptimal level ([1]; 2 μM single agent): normal CVP
formation of the CVP ([1]; 10 μM aplexone from 10 hpf): severely defective
secondary ISVs (venous-derived sprouts) ([1]; 10 μM from 10 hpf, 2-day-old embryos): absent
development of primary ISVs ([2]; 10 μM aplexone): indistinguishable; also recorded: does not affect the development of primary ISVs
development of primary ISVs ([2]; 30 μM aplexone): shorter and never reach the dorsal side of the somites; also recorded: inhibits the growth of primary ISVs
migration of HUVECs (HUVECs; 5 μM aplexone): sufficient to impede the migration of HUVECs
migration of HUVECs (HUVECs; various aplexone concentrations, 8 hr after wound): inhibited
